This is an account of results in PubChem BioAssay AID1963429 (Molecular Pharmacology Branch, DTP, NCI, 2024).

SMILES strings stand for the structures. Several values for one entry are separate records, joined by “and”; a condition that tells them apart may be missing. Equal entries are not always repeated.

By IC50 is commonly meant the concentration that inhibits the measured activity by half. The viability, T/C is the result in the treated group divided by that in the control group, in per cent.

The experiment has as its system 126254-015-R-J1-PDC complex spheroid growth, % test/control. The experiment in a line: Anticancer human tumor 126254-015-R-J1-PDC patient-derived soft tissue sarcoma cell line growth inhibition [Asc]. Conditions: for viability, T/C: stronger effect = lower value. A digest of the protocol:
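Tumor cells were grown as multicellular spheroids with stromal HUVEC and mesenchymal stem cells and treated singly or in combination. Concentrations fell in half-log steps from the clinical Cmax, or from 10 microM where none was known.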

Setting [1] is: curve of first compound, second compound 0.01 µM.
Setting [2] is: curve of first compound, second compound 0.0316 µM.
Where [3] appears, read: curve of first compound, second compound 0.1 µM.
The mark [4] stands for this setting: curve of first compound, second compound 0.316 µM.
The mark [5] stands for this setting: curve of first compound, second compound 1 µM.
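Note: spheroids exposed to compound for seven days.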
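Throughout, for viability, T/C: 100% = DMSO vehicle control wells.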

For `NC(=O)C(=Cn1cnc(-c2cc(C(F)(F)F)cc(C(F)(F)F)c2)n1)c1cncnc1` + CNC(C)C(=O)NC1CN(S(=O)(=O)c2cccc(S(=O)(=O)N3CCC4CCC(C(=O)NC(c5ccccc5)c5ccccc5)N4C(=O)C(NC(=O)C(C)NC)C3)c2)CCC2CCC(C(=O)NC(c3ccccc3)c3ccccc3)N2C1=O, the IC50 runs as follows: under setting [1], 61 nM; under setting [2], 24.4 nM; under setting [3], 24.3 nM; under setting [4], 16.8 nM; under setting [5], 10.5 nM. Besides, the viability, T/C runs as follows: (second compound 0.01 µM, first compound 0.000949 µM) 85.8%; (second compound 0.01 µM, first compound 0.003 µM) 87.5%; (second compound 0.01 µM, first compound 0.00949 µM) 73%; (second compound 0.01 µM, first compound 0.03 µM) 64.7%; (second compound 0.01 µM, first compound 0.0949 µM) 41.6%; (second compound 0.01 µM, first compound 0.3 µM) 9.66%. Moreover, the viability, T/C by setting is: (second compound 0.0316 µM, first compound 0.000949 µM) 80.4%; (second compound 0.0316 µM, first compound 0.003 µM) 77.7%; (second compound 0.0316 µM, first compound 0.00949 µM) 62.7%; (second compound 0.0316 µM, first compound 0.03 µM) 47.7%; (second compound 0.0316 µM, first compound 0.0949 µM) 25.9%; (second compound 0.0316 µM, first compound 0.3 µM) 9%. Besides, the viability, T/C (second compound 0.1 µM, first compound 0.000949 µM) is 58.2%; the viability, T/C (second compound 0.1 µM, first compound 0.003 µM) is 62.7%; the viability, T/C (second compound 0.1 µM, first compound 0.00949 µM) was 55.9%; the viability, T/C (second compound 0.1 µM, first compound 0.03 µM) is 48.9%; the viability, T/C (second compound 0.1 µM, first compound 0.0949 µM) was 23%; the viability, T/C (second compound 0.1 µM, first compound 0.3 µM) was 5.96%. Also, the viability, T/C by setting is: (second compound 0.316 µM, first compound 0.000949 µM) 60%; (second compound 0.316 µM, first compound 0.003 µM) 60.8%; (second compound 0.316 µM, first compound 0.00949 µM) 54.7%; (second compound 0.316 µM, first compound 0.03 µM) 44%; (second compound 0.316 µM, first compound 0.0949 µM) 15.1%; (second compound 0.316 µM, first compound 0.3 µM) 3.45%. The viability, T/C is, setting by setting: (second compound 1 µM, first compound 0.000949 µM) 51.9%; (second compound 1 µM, first compound 0.003 µM) 57.5%; (second compound 1 µM, first compound 0.00949 µM) 53.4%; (second compound 1 µM, first compound 0.03 µM) 35.8%; (second compound 1 µM, first compound 0.0949 µM) 18.8%; (second compound 1 µM, first compound 0.3 µM) 5.88%.
Turning to `CCN1CCN(Cc2ccc(Nc3ncc(F)c(-c4cc(F)c5nc(C)n(C(C)C)c5c4)n3)nc2)CC1` + CNC(C)C(=O)NC1CN(S(=O)(=O)c2cccc(S(=O)(=O)N3CCC4CCC(C(=O)NC(c5ccccc5)c5ccccc5)N4C(=O)C(NC(=O)C(C)NC)C3)c2)CCC2CCC(C(=O)NC(c3ccccc3)c3ccccc3)N2C1=O, the half-maximal inhibitory concentration (IC50) is, setting by setting: under setting [1], greater than 1000 nM; under setting [2], greater than 1000 nM; under setting [3], greater than 1000 nM; under setting [4], greater than 1000 nM; under setting [5], greater than 1000 nM. In addition, the viability, T/C is, setting by setting: (second compound 0.01 µM, first compound 0.00316 µM) 94.4%; (second compound 0.01 µM, first compound 0.01 µM) 96.4%; (second compound 0.01 µM, first compound 0.0316 µM) 91.5%; (second compound 0.01 µM, first compound 0.1 µM) 82.5%; (second compound 0.01 µM, first compound 0.316 µM) 97%; (second compound 0.01 µM, first compound 1 µM) 91.6%. For the same compound, the viability, T/C was 71% (second compound 0.0316 µM, first compound 0.00316 µM); 74.4% (second compound 0.0316 µM, first compound 0.01 µM); 77.8% (second compound 0.0316 µM, first compound 0.0316 µM); 80.1% (second compound 0.0316 µM, first compound 0.1 µM); 81.7% (second compound 0.0316 µM, first compound 0.316 µM); 77.6% (second compound 0.0316 µM, first compound 1 µM). Moreover, the viability, T/C was 61.4% (second compound 0.1 µM, first compound 0.00316 µM); 68.7% (second compound 0.1 µM, first compound 0.01 µM); 62.9% (second compound 0.1 µM, first compound 0.0316 µM); 69% (second compound 0.1 µM, first compound 0.1 µM); 75.9% (second compound 0.1 µM, first compound 0.316 µM); 79.6% (second compound 0.1 µM, first compound 1 µM). Further, the viability, T/C reads like this: (second compound 0.316 µM, first compound 0.00316 µM) 57.8%; (second compound 0.316 µM, first compound 0.01 µM) 62.5%; (second compound 0.316 µM, first compound 0.0316 µM) 62.4%; (second compound 0.316 µM, first compound 0.1 µM) 67.4%; (second compound 0.316 µM, first compound 0.316 µM) 65.6%; (second compound 0.316 µM, first compound 1 µM) 71.8%. In addition, the viability, T/C runs as follows: (second compound 1 µM, first compound 0.00316 µM) 59.2%; (second compound 1 µM, first compound 0.01 µM) 61.5%; (second compound 1 µM, first compound 0.0316 µM) 65%; (second compound 1 µM, first compound 0.1 µM) 52.6%; (second compound 1 µM, first compound 0.316 µM) 57.2%; (second compound 1 µM, first compound 1 µM) 60.9%.
For the compound `Cc1nc(N2CCC3(CC2)COC(C)C3N)c(CO)nc1Sc1ccnc(N)c1Cl` (stereo unspecified), the viability, T/C was 94.9% and 93.9% and 98.2% (compound 0.00949 µM); 103% and 83.5% and 93.7% (compound 0.03 µM); 86.2% and 84% and 84.9% (compound 0.0949 µM); 84.7% and 73.4% and 69.1% (compound 0.3 µM); 76.9% and 51.7% and 54.3% (compound 0.949 µM); 50.1% and 41.1% and 43.9% (compound 3 µM). For the same compound, for the setting “curve of compound”, the IC50 is > 3000 nM and 1260 nM and 1510 nM.
On to `O=C(c1ccc(F)c(F)c1Nc1ccc(I)cc1F)N1CC(O)([C@@H]2CCCCN2)C1`, for which the viability, T/C is, setting by setting: (compound 0.00316 µM) 103% and 94.5% and 96.1%; (compound 0.01 µM) 109% (2×) and 105%; (compound 0.0316 µM) 102% (2×) and 93.1%; (compound 0.1 µM) 91.6% and 90.3% and 101%; (compound 0.316 µM) 66.5% and 70.8% and 78.6%; (compound 1 µM) 42.6% and 42.9% and 55.1%. Besides, where the note is “curve of compound”, the IC50 is 699 nM and 755 nM and > 1000 nM.
With `NC1CCC(NC2CC2c2ccccc2)CC1` (stereo unspecified), the viability, T/C (compound 0.000316 µM) was 96.7% and 95.9% and 95.3%; the viability, T/C (compound 0.001 µM) was 87.1% and 102% and 107%; the viability, T/C (compound 0.00316 µM) is 96.5% and 88.6% and 98%; the viability, T/C (compound 0.01 µM) was 92.1% and 90.5% and 103%; the viability, T/C (compound 0.0316 µM) is 90.3% and 85.1% and 100%; the viability, T/C (compound 0.1 µM) was 84.9% and 93% and 96.2%. Also, where the note is “curve of compound”, the half-inhibitory concentration (IC50) is greater than 100 nM.
